Source: patent US5869494A, “Uses for barbituric acid analogs” (priority 1997, dated 1999)

How the values were obtained:
Assay in all cases: NCI tumor cell line screen (SRB assay)
Assay type in all cases: cell-based
Set-up in all cases: activity: dose or concentration left out as unconfirmed
A498 = settings: Homo sapiens, read-out: PERCENT GROWTH
Experimental: (§1) The National Cancer Institute carried out the studies at the direction of the present inventor.
(§2) In the tests, the National Cancer Institute used the SRB (sulforhodamine B) assay as described by Skehan et al., (Journal of the National Cancer Institute, 82:13, Jul. 4, 1990, 1107-1112). Briefly, the assay is as follows. TCA-fixed cells were stained for 30 minutes with 0.4% (wt/vol) SRB dissolved in 1% acetic acid. At the end of the staining period, SRB was removed and cultures were quickly rinsed four times with 1% acetic acid to remove unbound dye. The acetic acid was poured directly into the culture wells from a beaker. […] Residual wash solution was removed by sharply flicking plates over a sink, which ensured the complete removal of rinsing solution. […] After being rinsed, the cultures were air dried until no standing moisture was visible. Bound dye was solubilized with 10 mM unbuffered Tris base (pH 10.5) for 5 minutes on a gyratory shaker.
(§3) Optical density (OD) was read in either a UVmax microtiter plate reader (Molecular Devices, Menlo Park, Calif.) or a Beckman DU-70 spectrophotometer. For maximum sensitivity, OD was measured at 564 nm. Because readings were linear with dye concentrations only below 1.8 OD units, however, suboptimal wavelengths were generally used, so that all samples in an experiment remained within the linear OD range. With most cell lines, wavelengths of approximately 490-530 nm worked well for this purpose.
(§4) Nine different non-small cell lung carcinoma cell lines, six different colon carcinoma cell lines, six different CNS (central nervous system) carcinoma cell lines, seven different melanoma cell lines, six different ovarian carcinoma cell lines, and eight different renal carcinoma cell lines were tested.

EKVX = settings: Homo sapiens, read-out: PERCENT GROWTH
Experimental: as §1, §2, §3, §4

HCC-2998 = settings: Homo sapiens, read-out: PERCENT GROWTH
Experimental: as §1, §2, §3, §4

HCT-116 = settings: Homo sapiens, read-out: PERCENT GROWTH
Experimental: as §1, §2, §3, §4

IGROV1 = settings: Homo sapiens, IGROV-1, read-out: PERCENT GROWTH
Experimental: as §1, §2, §3, §4

M14 = settings: Homo sapiens, read-out: PERCENT GROWTH
Experimental: as §1, §2, §3, §4

NCI-H23 = settings: Homo sapiens, read-out: PERCENT GROWTH
Experimental: as §1, §2, §3, §4

NCI-H460 = settings: Homo sapiens, read-out: PERCENT GROWTH
Experimental: as §1, §2, §3, §4

NCI-H522 = settings: Homo sapiens, read-out: PERCENT GROWTH
Experimental: as §1, §2, §3, §4

OVCAR-8 = settings: Homo sapiens, read-out: PERCENT GROWTH
Experimental: as §1, §2, §3, §4

PK-10 = settings: Homo sapiens, read-out: PERCENT GROWTH
Experimental: as §1, §2, §3, §4

SF-295 = settings: Homo sapiens, read-out: PERCENT GROWTH
Experimental: as §1, §2, §3, §4

SN12C = settings: Homo sapiens, read-out: PERCENT GROWTH
Experimental: as §1, §2, §3, §4

SNB-19 = settings: Homo sapiens, read-out: PERCENT GROWTH
Experimental: as §1, §2, §3, §4

SW-620 = settings: Homo sapiens, read-out: PERCENT GROWTH
Experimental: as §1, §2, §3, §4

UO-31 = settings: Homo sapiens, read-out: PERCENT GROWTH
Experimental: as §1, §2, §3, §4

For `CCCCN1C(=O)CC(=O)N(CCCC)C1=S` [Compound C1, 4,6(1H, 5H)-pyrimidinedione, 1,3-dibutyldihydro-2-thioxo], the activity (A498; 10^-3.0 Molar) was -81%, the activity at 100 µM (A498; 10^-4.0 Molar) was 62% and the activity at 10 µM (A498; 10^-5.0 Molar) was 96%. The activity at 1 µM (A498; 10^-6.0 Molar) was 105%, the activity at 0.1 µM (A498; 10^-7.0 Molar) was 99% and the activity (EKVX; 10^-3.0 Molar) was -69%. The activity at 100 µM (EKVX; 10^-4.0 Molar) was 94%, the activity at 10 µM (EKVX; 10^-5.0 Molar) was 104% and the activity at 1 µM (EKVX; 10^-6.0 Molar) was 106%. For the same compound, the activity at 0.1 µM (EKVX; 10^-7.0 Molar) was 98%, the activity (HCC-2998; 10^-3.0 Molar) was -82% and the activity at 10 µM (HCC-2998; 10^-5.0 Molar) was 109%. It also gave an activity at 0.1 µM (HCC-2998; 10^-7.0 Molar) of 113%, an activity (HCT-116; 10^-3.0 Molar) of -100% and an activity at 100 µM (HCT-116; 10^-4.0 Molar) of 48%. The activity at 10 µM (HCT-116; 10^-5.0 Molar) was 118%, the activity at 1 µM (HCT-116; 10^-6.0 Molar) was 111% and the activity at 0.1 µM (HCT-116; 10^-7.0 Molar) was 109%. It also gave an activity (IGROV1; 10^-3.0 Molar) of -85%, an activity at 100 µM (IGROV1; 10^-4.0 Molar) of 88% and an activity at 10 µM (IGROV1; 10^-5.0 Molar) of 103%. For the same compound, the activity at 1 µM (IGROV1; 10^-6.0 Molar) was 107%, the activity at 0.1 µM (IGROV1; 10^-7.0 Molar) was 105% and the activity (M14; 10^-3.0 Molar) was -100%. For the same compound, the activity at 100 µM (M14; 10^-4.0 Molar) was 94%, the activity at 10 µM (M14; 10^-5.0 Molar) was 105% and the activity at 1 µM (M14; 10^-6.0 Molar) was 100%. For the same compound, the activity at 0.1 µM (M14; 10^-7.0 Molar) was 106%, the activity (NCI-H23; 10^-3.0 Molar) was -62% and the activity at 100 µM (NCI-H23; 10^-4.0 Molar) was 63%. The activity at 10 µM (NCI-H23; 10^-5.0 Molar) was 98%, the activity at 1 µM (NCI-H23; 10^-6.0 Molar) was 103% and the activity at 0.1 µM (NCI-H23; 10^-7.0 Molar) was 97%. For the same compound, the activity (NCI-H460; 10^-3.0 Molar) was -54%, the activity at 100 µM (NCI-H460; 10^-4.0 Molar) was 82% and the activity at 10 µM (NCI-H460; 10^-5.0 Molar) was 97%. It also gave an activity at 1 µM (NCI-H460; 10^-6.0 Molar) of 100%, an activity at 0.1 µM (NCI-H460; 10^-7.0 Molar) of 99% and an activity (NCI-H522; 10^-3.0 Molar) of -82%. The activity at 100 µM (NCI-H522; 10^-4.0 Molar) was 47%, the activity at 10 µM (NCI-H522; 10^-5.0 Molar) was 104% and the activity at 1 µM (NCI-H522; 10^-6.0 Molar) was 102%. For the same compound, the activity at 0.1 µM (NCI-H522; 10^-7.0 Molar) was 100%, the activity (OVCAR-8; 10^-3.0 Molar) was -49% and the activity at 100 µM (OVCAR-8; 10^-4.0 Molar) was 81%. For the same compound, the activity at 10 µM (OVCAR-8; 10^-5.0 Molar) was 108%, the activity at 1 µM (OVCAR-8; 10^-6.0 Molar) was 106% and the activity at 0.1 µM (OVCAR-8; 10^-7.0 Molar) was 102%. It also gave an activity (PK-10) of -19%, an activity at 0.1 µM (PK-10) of 94% and an activity at 1 µM (PK-10) of 94%. It also gave an activity at 10 µM (PK-10) of 98%, an activity at 100 µM (PK-10) of 74% and an activity (SF-295; 10^-3.0 Molar) of -95%. The activity at 100 µM (SF-295; 10^-4.0 Molar) was 47%, the activity at 10 µM (SF-295; 10^-5.0 Molar) was 100% and the activity at 1 µM (SF-295; 10^-6.0 Molar) was 100%. The activity at 0.1 µM (SF-295; 10^-7.0 Molar) was 104%, the activity (SN12C; 10^-3.0 Molar) was -42% and the activity at 100 µM (SN12C; 10^-4.0 Molar) was 62%. The activity at 10 µM (SN12C; 10^-5.0 Molar) was 89%, the activity at 1 µM (SN12C; 10^-6.0 Molar) was 58% and the activity at 0.1 µM (SN12C; 10^-7.0 Molar) was 90%. It also gave an activity (SNB-19; 10^-3.0 Molar) of -54%, an activity at 100 µM (SNB-19; 10^-4.0 Molar) of 90% and an activity at 10 µM (SNB-19; 10^-5.0 Molar) of 109%. For the same compound, the activity at 1 µM (SNB-19; 10^-6.0 Molar) was 99%, the activity at 0.1 µM (SNB-19; 10^-7.0 Molar) was 105% and the activity (SW-620; 10^-3.0 Molar) was -39%. The activity at 100 µM (SW-620; 10^-4.0 Molar) was 85%, the activity at 10 µM (SW-620; 10^-5.0 Molar) was 99% and the activity at 1 µM (SW-620; 10^-6.0 Molar) was 100%. For the same compound, the activity at 0.1 µM (SW-620; 10^-7.0 Molar) was 110%, the activity (UO-31; 10^-3.0 Molar) was -75% and the activity at 100 µM (UO-31; 10^-4.0 Molar) was 63%. For the same compound, the activity at 10 µM (UO-31; 10^-5.0 Molar) was 92%, the activity at 1 µM (UO-31; 10^-6.0 Molar) was 99% and the activity at 0.1 µM (UO-31; 10^-7.0 Molar) was 92%.
